Measurements taken from article PMC6095594, “Pre-clinical evaluation of quinoxaline-derived chalcones in tuberculosis” (PLoS ONE, 2018).

What was measured:
CYP2C19 = CYP2C19 (Homo sapiens, UniProt P33261); details: human liver microsomes, CYP2C19, N9 0.01–100 μmol L^-1
CYP1A2 = CYP1A2 (Homo sapiens, UniProt P05177); experiment: biochemical
S. typhimurium TA100 = experiment: Salmonella/microsome mutagenicity test
Method: (§1) Salmonella typhimurium strains TA98, TA97a, TA100, TA1535, and TA102 were provided by MOLTOX® (Molecular Toxicology Inc. USA). Mutagenicity was assayed according to the pre-incubation procedure following the recommendation described in Mortelmans and Zieger (2000). […] Briefly, 100 μL of test bacterial cultures (1–2 x 10^9 cells/mL) were incubated at 37 °C with different concentrations of N9 (10–400 μg/plate) in the presence or absence of S9 mix, for 20 min, without shaking. […] Plates were incubated in the dark at 37 °C for 48 h before counting the revertant colonies. Assays were repeated twice and the plating for each concentration was conducted in triplicate. Data were evaluated by one-way analysis of variance (ANOVA), followed by Dunnett's post-test, using GraphPad Prism 5.0 (GraphPad, San Diego, CA, USA).

S. typhimurium TA1535 = experiment: Salmonella/microsome mutagenicity test
Method: as §1

S. typhimurium TA98 = experiment: Salmonella/microsome mutagenicity test
Method: Salmonella typhimurium strains TA98, TA97a, TA100, TA1535, and TA102 were provided by MOLTOX® (Molecular Toxicology Inc. USA). Mutagenicity was assayed according to the pre-incubation procedure following the recommendation described in Mortelmans and Zieger (2000). […] Briefly, 100 μL of test bacterial cultures (1–2 x 10^9 cells/mL) were incubated at 37 °C with different concentrations of N9 (10–400 μg/plate) in the presence or absence of S9 mix, for 20 min, without shaking. […] 2-aminoanthracene (2-AA, 5 μg/plate) was used as positive control for all strains in the presence of metabolic activation (with S9 mix). […] Plates were incubated in the dark at 37 °C for 48 h before counting the revertant colonies. Assays were repeated twice and the plating for each concentration was conducted in triplicate. Data were evaluated by one-way analysis of variance (ANOVA), followed by Dunnett's post-test, using GraphPad Prism 5.0 (GraphPad, San Diego, CA, USA).

Sequence of CYP1A2 (P05177 whole entry): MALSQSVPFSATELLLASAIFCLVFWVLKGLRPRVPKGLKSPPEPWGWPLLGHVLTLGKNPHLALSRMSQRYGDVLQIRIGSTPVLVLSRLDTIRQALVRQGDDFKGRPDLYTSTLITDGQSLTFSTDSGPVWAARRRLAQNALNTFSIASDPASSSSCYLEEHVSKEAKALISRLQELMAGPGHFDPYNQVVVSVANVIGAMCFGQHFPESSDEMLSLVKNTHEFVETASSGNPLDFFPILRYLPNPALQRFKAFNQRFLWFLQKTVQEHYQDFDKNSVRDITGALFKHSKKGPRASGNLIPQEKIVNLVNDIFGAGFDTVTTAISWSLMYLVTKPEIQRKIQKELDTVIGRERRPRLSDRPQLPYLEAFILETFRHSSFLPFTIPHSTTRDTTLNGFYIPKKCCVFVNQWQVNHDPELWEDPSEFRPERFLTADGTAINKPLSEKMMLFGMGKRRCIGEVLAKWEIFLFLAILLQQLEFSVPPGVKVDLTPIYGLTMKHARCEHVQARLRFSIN
Sequence of CYP2C19 (P33261 whole entry): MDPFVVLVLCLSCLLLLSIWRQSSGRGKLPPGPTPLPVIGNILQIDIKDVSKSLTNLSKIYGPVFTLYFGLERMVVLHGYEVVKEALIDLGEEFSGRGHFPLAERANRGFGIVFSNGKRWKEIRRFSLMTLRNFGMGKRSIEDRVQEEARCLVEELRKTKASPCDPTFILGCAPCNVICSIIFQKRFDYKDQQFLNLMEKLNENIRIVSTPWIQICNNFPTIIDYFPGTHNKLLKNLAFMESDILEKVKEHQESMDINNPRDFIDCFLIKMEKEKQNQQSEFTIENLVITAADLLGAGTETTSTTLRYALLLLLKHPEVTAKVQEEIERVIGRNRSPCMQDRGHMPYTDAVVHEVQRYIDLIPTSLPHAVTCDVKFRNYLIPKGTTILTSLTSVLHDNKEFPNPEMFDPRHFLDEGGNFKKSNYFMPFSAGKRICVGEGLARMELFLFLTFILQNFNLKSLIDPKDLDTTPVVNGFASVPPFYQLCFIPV

COc1ccc(OC)c(C(=O)/C=C/c2ccc3nccnc3c2)c1 [N9]
percentage of remaining enzyme activity (CYP2C19): approximately 100%
IC50 (CYP1A2): 2000 nM
MI: mutagenic index (S. typhimurium TA100; TA100, +S9, 10 μg/plate): 0.94
Number of revertants/plate (S. typhimurium TA100; TA100, +S9, 10 μg/plate): 108.7±15.2 Rev/plate
MI: mutagenic index (S. typhimurium TA100; TA100, +S9, 50 μg/plate): 1.13
Number of revertants/plate (S. typhimurium TA100; TA100, +S9, 50 μg/plate): 130.7±10.7 Rev/plate
MI: mutagenic index (S. typhimurium TA100; TA100, +S9, 100 μg/plate): 0.97
Number of revertants/plate (S. typhimurium TA100; TA100, +S9, 100 μg/plate): 112.7±15.5 Rev/plate
MI: mutagenic index (S. typhimurium TA100; TA100, +S9, 200 μg/plate): 0.95
Number of revertants/plate (S. typhimurium TA100; TA100, +S9, 200 μg/plate): 110.0±11.8 Rev/plate
MI: mutagenic index (S. typhimurium TA100; TA100, +S9, 400 μg/plate): 0.97
Number of revertants/plate (S. typhimurium TA100; TA100, +S9, 400 μg/plate): 112.0±13.9 Rev/plate
MI: mutagenic index (S. typhimurium TA100; TA100, -S9, 10 μg/plate): 1.08
Number of revertants/plate (S. typhimurium TA100; TA100, -S9, 10 μg/plate): 125.0±10.5 Rev/plate
MI: mutagenic index (S. typhimurium TA100; TA100, -S9, 50 μg/plate): 0.88
Number of revertants/plate (S. typhimurium TA100; TA100, -S9, 50 μg/plate): 101.0±12.5 Rev/plate
MI: mutagenic index (S. typhimurium TA100; TA100, -S9, 100 μg/plate): 0.84
Number of revertants/plate (S. typhimurium TA100; TA100, -S9, 100 μg/plate): 97.0±20.1 Rev/plate
MI: mutagenic index (S. typhimurium TA100; TA100, -S9, 200 μg/plate): 0.95
Number of revertants/plate (S. typhimurium TA100; TA100, -S9, 200 μg/plate): 109.7±7.8 Rev/plate
MI: mutagenic index (S. typhimurium TA100; TA100, -S9, 400 μg/plate): 0.84
Number of revertants/plate (S. typhimurium TA100; TA100, -S9, 400 μg/plate): 96.7±9.3 Rev/plate
MI: mutagenic index (S. typhimurium TA1535; TA1535, +S9, 10 μg/plate): 1.16
Number of revertants/plate (S. typhimurium TA1535; TA1535, +S9, 10 μg/plate): 9.7±1.2 Rev/plate
MI: mutagenic index (S. typhimurium TA1535; TA1535, +S9, 50 μg/plate): 1.24
Number of revertants/plate (S. typhimurium TA1535; TA1535, +S9, 50 μg/plate): 10.3±2.5 Rev/plate
MI: mutagenic index (S. typhimurium TA1535; TA1535, +S9, 100 μg/plate): 1.00
Number of revertants/plate (S. typhimurium TA1535; TA1535, +S9, 100 μg/plate): 8.3±4.9 Rev/plate
MI: mutagenic index (S. typhimurium TA1535; TA1535, +S9, 200 μg/plate): 1.04
Number of revertants/plate (S. typhimurium TA1535; TA1535, +S9, 200 μg/plate): 8.7±1.2 Rev/plate
MI: mutagenic index (S. typhimurium TA1535; TA1535, +S9, 400 μg/plate): 0.68
Number of revertants/plate (S. typhimurium TA1535; TA1535, +S9, 400 μg/plate): 5.7±1.2 Rev/plate
MI: mutagenic index (S. typhimurium TA1535; TA1535, -S9, 10 μg/plate): 1.03
Number of revertants/plate (S. typhimurium TA1535; TA1535, -S9, 10 μg/plate): 11.7±0.6 Rev/plate
MI: mutagenic index (S. typhimurium TA1535; TA1535, -S9, 50 μg/plate): 0.82
Number of revertants/plate (S. typhimurium TA1535; TA1535, -S9, 50 μg/plate): 9.3±0.6 Rev/plate
MI: mutagenic index (S. typhimurium TA1535; TA1535, -S9, 100 μg/plate): 1.03
Number of revertants/plate (S. typhimurium TA1535; TA1535, -S9, 100 μg/plate): 11.7±5.9 Rev/plate
MI: mutagenic index (S. typhimurium TA1535; TA1535, -S9, 200 μg/plate): 1.18
Number of revertants/plate (S. typhimurium TA1535; TA1535, -S9, 200 μg/plate): 13.3±4.0 Rev/plate
MI: mutagenic index (S. typhimurium TA1535; TA1535, -S9, 400 μg/plate): 1.24
Number of revertants/plate (S. typhimurium TA1535; TA1535, -S9, 400 μg/plate): 14.0±3.6 Rev/plate
MI: mutagenic index (S. typhimurium TA98; TA98, +S9, 10 μg/plate): 1.09
Number of revertants/plate (S. typhimurium TA98; TA98, +S9, 10 μg/plate): 43.7±4.7 Rev/plate
MI: mutagenic index (S. typhimurium TA98; TA98, +S9, 50 μg/plate): 0.80
Number of revertants/plate (S. typhimurium TA98; TA98, +S9, 50 μg/plate): 32.0±7.8 Rev/plate
MI: mutagenic index (S. typhimurium TA98; TA98, +S9, 100 μg/plate): 0.94
Number of revertants/plate (S. typhimurium TA98; TA98, +S9, 100 μg/plate): 37.7±5.7 Rev/plate
MI: mutagenic index (S. typhimurium TA98; TA98, +S9, 200 μg/plate): 1.05
Number of revertants/plate (S. typhimurium TA98; TA98, +S9, 200 μg/plate): 42.0±5.6 Rev/plate
MI: mutagenic index (S. typhimurium TA98; TA98, +S9, 400 μg/plate): 1.06
Number of revertants/plate (S. typhimurium TA98; TA98, +S9, 400 μg/plate): 42.3±6.7 Rev/plate
MI: mutagenic index (S. typhimurium TA98; TA98, -S9, 10 μg/plate): 0.83
